From patent US10189819B2, “Factor IXa inhibitors” (MERCK SHARP & DOHME CORP., priority 2014, dated 2019)
pIC50: −log10 of the molar value.

Molecular target: Factor IXa (Homo sapiens (Human), UniProt P00740)
Assay: Determination of inhibitory activity against Factor IXa (cleavage of fluorescent peptide CH3SO2-D-CHG-Gly-Arg-AFC)
Assay type: biochemical
Conditions: read-out: FIXa IC50
Experimental: Determination of Inhibitory Activity Against Factor IXa
Formation of a clot to stem bleeding at a site of blood vessel injury involves the coordinated activity of a group of plasma proteins that initiate and propagate fibrin formation and subsequently protect fibrin from premature degradation. Factor IX is a key component of the plasma system that forms a fibrin clot at a site of vascular injury. The activity of Factor IXa is measured by monitoring the cleavage of the fluorescent peptide, CH3SO2-D-CHG-Gly-Arg-AFC.AcOH (“CHG” is cyclohexyl-glycine and “AFC” is trifluoro aminomethyl coumarin). Factor IXa cleaves the amide bond between Arg and AFC, thereby releasing the AFC fluorophore. The free AFC can be detected with a fluorescence detector at an excitation wavelength of 405 nm and emission wavelength of 510 nm.

Factor IXa, sequence (P00740 227-461): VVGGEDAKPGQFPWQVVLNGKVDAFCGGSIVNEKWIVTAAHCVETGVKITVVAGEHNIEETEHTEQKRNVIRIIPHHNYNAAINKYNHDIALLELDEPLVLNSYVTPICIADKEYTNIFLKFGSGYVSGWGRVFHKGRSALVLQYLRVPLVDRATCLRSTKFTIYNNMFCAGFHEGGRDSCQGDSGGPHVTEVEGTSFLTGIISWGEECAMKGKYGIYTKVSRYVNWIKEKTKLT
Factor IXa, sequence (P00740 47-191 partner): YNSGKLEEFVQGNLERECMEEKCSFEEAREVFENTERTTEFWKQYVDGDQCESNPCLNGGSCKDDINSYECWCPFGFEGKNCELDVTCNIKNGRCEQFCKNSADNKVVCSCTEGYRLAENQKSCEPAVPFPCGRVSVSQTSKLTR

**Q.** `Cc1ncn(-c2cc(Cl)c(C(=O)NCC(c3ccc(=O)[nH]c3)c3nc4ccc(Cl)cc4[nH]3)c(Cl)c2)n1` (racemic) [Example 39, 2,6-Dichloro-N-(2-(6-chloro-1H-benzo[d]imidazol-2-yl)-2-(6-oxo-1,6-dihydropyridin-3-yl)ethyl)-4-(3-methyl-1H-1,2,4-triazol-1-yl)benzamide 2,2,2-trifluoroacetate] was tested. Which pIC50 did it give?
**A.** 8.62

**Q.** With `COc1ccc(C(CNC(=O)c2c(Cl)cc(-n3cnc(C)n3)cc2Cl)c2nc3ccc(Cl)cc3[nH]2)cn1` (racemic) [Example 40, (±)-2,6-Dichloro-N-(2-(6-chloro-1H-benzo[d]imidazol-2-yl)-2-(6-methoxypyridin-3-yl)ethyl)-4-(3-methyl-1H-1,2,4-triazol-1-yl)benzamide] as the compound, how does the pIC50 read?
**A.** 7.49

**Q.** `COc1cc2nc(C(CNC(=O)c3c(Cl)cc(-n4cnc(C)n4)cc3Cl)n3cc(CO)nn3)[nH]c2cc1Cl` (racemic) [Example 71, (±)-2,6-Dichloro-N-(2-(6-chloro-5-methoxy-1H-benzo[d]imidazol-2-yl)-2-(4-(hydroxymethyl)-1H-1,2,3-triazol-1-yl)ethyl)-4-(3-methyl-1H-1,2,4-triazol-1-yl)benzamide] was tested. Which pIC50 did it give?
**A.** 7.69

**Q.** With `Cc1cc2nc(C(CNC(=O)c3c(Cl)cc(-n4cc(CCO)nn4)cc3Cl)c3ccccc3)[nH]c2cc1C` (single isomer, unassigned) [Example 1] as the compound, how does the pIC50 read?
**A.** 7.98

**Q.** `Cc1cc2nc(C(C)(CNC(=O)c3ccc(-n4cnnc4)cc3Cl)c3ccccc3)[nH]c2cc1C` (single isomer, unassigned) [Example 69] was tested. Which pIC50 did it give?
**A.** 7.26

**Q.** With `Cc1cc2nc([C@@H](CNC(=O)c3c(Cl)cc(-n4cnnn4)cc3Cl)c3ccccc3)[nH]c2cc1C` [Example 2, (R)-2,6-dichloro-N-(2-(5,6-dimethyl-1H-benzo[d]imidazol-2-yl)-2-phenylethyl)-4-(1H-tetrazol-1-yl)benzamide] as the compound, how does the pIC50 read?
**A.** 7.58

**Q.** `Cc1cc2nc(C(CNC(=O)c3c(Cl)cc(-c4ccnc(C(=O)O)c4)cc3Cl)c3ccccc3)[nH]c2cc1C` (centres unmarked) [Example 16, 4-(3,5-Dichloro-4-((2-(5,6-dimethyl-1H-benzo[d]imidazol-2-yl)-2-phenylethyl)carbamoyl)phenyl)picolinic acid] was tested. Which pIC50 did it give?
**A.** 7.13

**Q.** How did the pIC50 turn out when `Cc1cc2nc([C@@H](CNC(=O)c3ccc(-n4cnnc4)cc3Cl)c3ccccc3)[nH]c2cc1C` [Example 37, (R)-2-Chloro-N-(2-(5,6-dimethyl-1H-benzo[d]imidazol-2-yl)-2-phenylethyl)-4-(4H-1,2,4-triazol-4-yl)benzamide] was run?
**A.** 7.80

Same assay, conditions: read-out: hFIXa IC50

**Q.** With `Cc1cc2nc(C(CNC(=O)c3ccc(-n4cc(CCO)nn4)cc3Cl)c3ccccc3)[nH]c2cc1C` (centres unmarked) [Example 3] as the compound, how does the pIC50 read?
**A.** 7.66

**Q.** `Cc1ncn(-c2cc(Cl)c(C(=O)NCC(c3ccccc3)c3nc4cc(C)c(C)cc4[nH]3)c(C(F)(F)F)c2)n1` (centres unmarked) [Example 4] was tested. Which pIC50 did it give?
**A.** 7.20

**Q.** With `Cc1cc2nc(C(CNC(=O)c3c(Cl)cc(-n4cnnc4)cc3C(F)(F)F)c3ccccc3)[nH]c2cc1C` (centres unmarked) [Example 5] as the compound, how does the pIC50 read?
**A.** 7.66

**Q.** With `Cc1ncn(-c2cc(Cl)c(C(=O)NCC(c3ccccc3)c3nc4cc(C)c(C)cc4[nH]3)c(Cl)c2)n1` (centres unmarked) [Example 6] as the compound, how does the pIC50 read?
**A.** 7.68

**Q.** `Cc1cc2nc(C(CNC(=O)c3c(Cl)cc(-n4cnnc4)cc3Cl)c3ccccc3)[nH]c2cc1C` (centres unmarked) [Example 7] was tested. Which pIC50 did it give?
**A.** 8.44

**Q.** How did the pIC50 turn out when `Cc1ncn(-c2cc(C)c(C(=O)NCC(c3ccccc3)c3nc4cc(C)c(C)cc4[nH]3)c(Cl)c2)n1` (centres unmarked) [Example 8] was run?
**A.** 8.16

**Q.** `COc1cc(-n2cnnc2)cc(Cl)c1C(=O)NCC(c1ccccc1)c1nc2cc(C)c(C)cc2[nH]1` (centres unmarked) [Example 9] was tested. Which pIC50 did it give?
**A.** 7.83

**Q.** With `Cc1cc2nc(C(CNC(=O)c3c(F)cc(-n4cnnc4)cc3Cl)c3ccccc3)[nH]c2cc1C` (centres unmarked) [Example 10] as the compound, how does the pIC50 read?
**A.** 7.82

**Q.** `Cc1cc2nc(C(CNC(=O)c3c(C)cc(-n4cnnc4)cc3Cl)c3ccccc3)[nH]c2cc1C` (centres unmarked) [Example 11] was tested. Which pIC50 did it give?
**A.** 8.09

**Q.** How did the pIC50 turn out when `Cc1cc2nc([C@@H](CNC(=O)c3ccc(-n4cnnn4)cc3Cl)c3ccccc3)[nH]c2cc1C` [Example 12] was run?
**A.** 7.11

**Q.** With `COc1ncn(-c2ccc(C(=O)NCC(c3cccc(F)c3)c3nc4ccc(Cl)cc4[nH]3)c(Cl)c2)n1` (centres unmarked) [Example 13] as the compound, how does the pIC50 read?
**A.** 7.18

**Q.** `Cc1cc2nc(C(CNC(=O)c3c(Cl)cc(-n4cnnc4)cc3OC(F)(F)F)c3ccccc3)[nH]c2cc1C` (centres unmarked) [Example 14] was tested. Which pIC50 did it give?
**A.** 7.40

**Q.** How did the pIC50 turn out when `Cc1cc(Cl)cc2[nH]c(C(CNC(=O)c3ccc(-n4cnnc4C)cc3Cl)c3cccc(F)c3)nc12` (centres unmarked) [Example 15] was run?
**A.** 8.31

**Q.** `Cc1cc2nc(C(CNC(=O)c3c(Cl)cc(-c4cncnc4)cc3Cl)c3ccccc3)[nH]c2cc1C` (centres unmarked) [Example 17] was tested. Which pIC50 did it give?
**A.** 7.74

**Q.** How did the pIC50 turn out when `Cc1cc2nc(C(CNC(=O)c3c(Cl)cc(-c4cnn(CS(C)(=O)=O)c4)cc3Cl)c3ccccc3)[nH]c2cc1C` (centres unmarked) [Example 18] was run?
**A.** 6.40

**Q.** `CCOC(=O)c1cc(-c2cc(Cl)c(C(=O)NCC(c3ccccc3)c3nc4cc(C)c(C)cc4[nH]3)c(Cl)c2)ccn1` (centres unmarked) [Example 19] was tested. Which pIC50 did it give?
**A.** 6.46

**Q.** `Cc1cc2nc(C(CNC(=O)c3c(Cl)cc(-c4cnc5c(c4)CCC(=O)N5)cc3Cl)c3ccccc3)[nH]c2cc1C` (centres unmarked) [Example 20] was tested. Which pIC50 did it give?
**A.** 6.56

**Q.** With `Cc1cc2nc(C(CNC(=O)c3c(Cl)cc(-c4cnc(OCCF)nc4)cc3Cl)c3ccccc3)[nH]c2cc1C` (centres unmarked) [Example 21] as the compound, how does the pIC50 read?
**A.** 6.42

**Q.** `Cc1cc2nc(C(CNC(=O)c3c(Cl)cc(-c4cncc(C(C)(C)O)c4)cc3Cl)c3ccccc3)[nH]c2cc1C` (centres unmarked) [Example 22] was tested. Which pIC50 did it give?
**A.** 7.35

**Q.** `COC(=O)c1ccc(-c2cc(Cl)c(C(=O)NCC(c3ccccc3)c3nc4cc(C)c(C)cc4[nH]3)c(Cl)c2)cn1` (centres unmarked) [Example 23] was tested. Which pIC50 did it give?
**A.** 6.26

**Q.** `Cc1cc2nc(C(CNC(=O)c3c(Cl)cc(-c4cnc5c(c4)CNC5=O)cc3Cl)c3ccccc3)[nH]c2cc1C` (centres unmarked) [Example 24] was tested. Which pIC50 did it give?
**A.** 6.85

**Q.** With `Cc1cc2nc(C(CNC(=O)c3c(Cl)cc(-c4cnc5ccccc5c4)cc3Cl)c3ccccc3)[nH]c2cc1C` (centres unmarked) [Example 25] as the compound, how does the pIC50 read?
**A.** 6.33

**Q.** `Cc1cc2nc(C(CNC(=O)c3c(Cl)cc(-c4ccc(C(=O)O)nc4)cc3Cl)c3ccccc3)[nH]c2cc1C` (centres unmarked) [Example 26] was tested. Which pIC50 did it give?
**A.** 6.51

**Q.** `Cc1cc2nc(C(CNC(=O)c3c(Cl)cc(-c4ccc5nncn5c4)cc3Cl)c3ccccc3)[nH]c2cc1C` (centres unmarked) [Example 27] was tested. Which pIC50 did it give?
**A.** 7.68

**Q.** How did the pIC50 turn out when `Cc1cc2nc(C(CNC(=O)c3c(Cl)cc(-c4ccn5ncnc5c4)cc3Cl)c3ccccc3)[nH]c2cc1C` (centres unmarked) [Example 28] was run?
**A.** 7.19

**Q.** With `Cc1cc2nc(C(CNC(=O)c3c(Cl)cc(-c4cnc(C5CC5)nc4)cc3Cl)c3ccccc3)[nH]c2cc1C` (centres unmarked) [Example 29] as the compound, how does the pIC50 read?
**A.** 6.18

**Q.** With `CCOC(=O)c1cc(-c2ccc(C(=O)NCC(c3ccccc3)c3nc4cc(C)c(C)cc4[nH]3)c(Cl)c2)ccn1` (centres unmarked) [Example 30] as the compound, how does the pIC50 read?
**A.** 6.61

**Q.** How did the pIC50 turn out when `Cc1cc2nc(C(CNC(=O)c3c(Cl)cc(-c4cnn(CCO)c4)cc3Cl)c3ccccc3)[nH]c2cc1C` (centres unmarked) [Example 31] was run?
**A.** 7.19

**Q.** `Cc1cc2nc(C(CNC(=O)c3c(Cl)cc(-c4cn[nH]c4)cc3Cl)c3ccccc3)[nH]c2cc1C` (centres unmarked) [Example 32] was tested. Which pIC50 did it give?
**A.** 6.30

**Q.** How did the pIC50 turn out when `Cc1cc2nc(C(CNC(=O)c3ccc(-c4ccnc(C(=O)O)c4)cc3Cl)c3ccccc3)[nH]c2cc1C` (centres unmarked) [Example 33] was run?
**A.** 6.27

**Q.** `Cc1cc2nc(C(CNC(=O)c3c(Cl)cc(-c4cncc(CO)c4)cc3Cl)c3ccccc3)[nH]c2cc1C` (centres unmarked) [Example 34] was tested. Which pIC50 did it give?
**A.** 7.99

**Q.** `Cc1cc2nc(C(CNC(=O)c3c(Cl)cc(-c4ccc(CO)nc4)cc3Cl)c3ccccc3)[nH]c2cc1C` (centres unmarked) [Example 35] was tested. Which pIC50 did it give?
**A.** 7.37

**Q.** With `Cc1cc2nc(C(CNC(=O)c3c(Cl)cc(-c4ccnc(CO)c4)cc3Cl)c3ccccc3)[nH]c2cc1C` (centres unmarked) [Example 36] as the compound, how does the pIC50 read?
**A.** 7.28
